Reference: US20110206689A1, “Molecular Determinants Associated With Prostate Cancer And Methods Of Use Thereof” (Dana-Farber Cancer Institute, Inc., priority 2010, published 2011)

Columns and labels:
Type in all cases: cell-based, human
[1] = tested on: TK1; assay: Androgen induction of TK1 protein expression in LNCaP cells (immunoblot); conditions: LNCaP cells in hormone depleted medium, 10 nM R1881, immunoblot
Procedure: FIG. 3. […] Androgen responsive LNCaP cells cultured in hormone depleted medium were treated with 10 nM of the synthetic androgen, R1881, for the indicated times, and TK1 expression was assayed by immunoblot analysis. […] Small hairpins targeting AR were introduced into LNCaP cells infected with TK1, or control uninfected LNCaP cells. Cell proliferation was monitored. Relative proliferation is normalized to the shGFP control.
(§1) Immunoblots were performed as previously described {Boehm, 2005 #51}. The following antibodies were used: TK1 (Abcam, ab57757), AR (Santa Cruz, sc-7305), Flag (Sigma, M2), PDK1 (Becton Dickinson, 611070), p-PDK1 (Becton Dickinson, 558395), AKT (Cell Signaling, 9272), p-AKT1-Thr308 (Cell Signaling, 4056), p-AKT1-Ser473 (Cell Signaling, 9271), p-AKT1-Thr450 (Cell Signaling, 9267), p-AKT1-Tyr326 (Cell Signaling, 2968), Actin (Santa Cruz, sc-47778).
TK1 has been reported to be induced by androgens in the rat prostate. […] To elucidate whether TK1 is sufficient to replace AR signaling in promoting cell proliferation and survival, we silenced AR expression in LNCaP cells by RNAi in the presence or absence of ectopic TK1 expression, and monitored cell death.

[2] = tested on: TK1; assay: Suppression of TK1 expression by shRNA in prostate cancer cell lines; conditions: lentiviral shRNA
Procedure: as §1
Stable suppression of TK1 and AR were accomplished by using the pLKO.1-puro lentiviral shRNA constructs previously described {Moffat, 2006 #52}. The sequences targeted by the hairpins are as follows: shTK1-3, […] (SEQ ID NO: 1); shTK1-4, […] (SEQ ID NO: 2); shTK1-5, […] (SEQ ID NO: 3); shAR-1, […] (SEQ ID NO: 4); shAR-4, […] (SEQ ID NO: 5); shAR-5, […] (SEQ ID NO: 6); shGFP, Experiments were performed in duplicate, in both the presence and absence of 1.5 ug/ml puromycin to monitor infection efficiency. Viable cells were counted using a Coulter Counter.
(§2) Next, we determined whether suppressing the expression of TK1 in prostate cancer cell lines that overexpress TK1 reverses their ability to proliferate or survive. […]

[3] = tested on: prostate cancer cell lines; assay: Effect of TK1 shRNA on proliferation of prostate cancer cell lines (all cultures); conditions: for cells remaining 12 days post infection: all cultures
Text: FIG. 2. TK1 overexpression synergizes with AKT1 to promote hormone independent prostate cancer. a) Androgen independent tumor formation. LHSR-AR cells were infected with the indicated constructs and injected subcutaneously into castrated mice, except where indicated. M-myristoylated; F-Flag tagged. b) AKT1 and TK1 promote nuclear translocation of AR independent of androgen. H&E and immunhistochemical staining for AR in subcutaneous tumor sections derived from LHSR-AR cells infected with the indicated constructs. Staining of androgen dependent GFP tumor is shown as control. Minimum of 3 tumors were stained per sample and representative images are shown. c) TK1 chromosomal amplification in hormone sensitive and refractory tumors. DNA from 16 hormone sensitive (HS) and 23 hormone refractory (HR) human prostate tumors (from FIG. 1b) were hybridized onto SNP arrays and analyzed for TK1 copy number gain (CNG). The number and percentage of tumors with and without amplification are indicated. d) TK1 protein expression in hormone sensitive and refractory tumors. Prostate tumor microarrays containing 73 hormone sensitive (HS) and 11 hormone resistant (HS) tumor cores were analyzed for TK1 protein expression by immunohistochemistry. The number and percentage of tumors negative and positive for TK1 expression are indicated. d) Immunoblot analysis for TK1 expression in the indicated prostate cancer cell lines. Actin was used to control for loading. e) Effect of TK1 suppression on the proliferation of prostate cancer cells. […] Relative cell number is normalized to the shGFP control.
Stable suppression of TK1 and AR were accomplished by using the pLKO.1-puro lentiviral shRNA constructs previously described {Moffat, 2006 #52}. The sequences targeted by the hairpins are as follows: shTK1-3, […] (SEQ ID NO: 1); shTK1-4, […] (SEQ ID NO: 2); shTK1-5, […] (SEQ ID NO: 3); shAR-1, […] […] Viable cells were counted using a Coulter Counter.
as §2

[4] = tested on: CL-1 cells; assay: Effect of TK1 suppression by shRNA on cell number of prostate cancer cells (viable cells counted with Coulter Counter); conditions: relative to shGFP control
Text: (§3) FIG. 2. TK1 overexpression synergizes with AKT1 to promote hormone independent prostate cancer. a) Androgen independent tumor formation. LHSR-AR cells were infected with the indicated constructs and injected subcutaneously into castrated mice, except where indicated. M-myristoylated; F-Flag tagged. b) AKT1 and TK1 promote nuclear translocation of AR independent of androgen. H&E and immunhistochemical staining for AR in subcutaneous tumor sections derived from LHSR-AR cells infected with the indicated constructs. Staining of androgen dependent GFP tumor is shown as control. Minimum of 3 tumors were stained per sample and representative images are shown. c) TK1 chromosomal amplification in hormone sensitive and refractory tumors. DNA from 16 hormone sensitive (HS) and 23 hormone refractory (HR) human prostate tumors (from FIG. 1b) were hybridized onto SNP arrays and analyzed for TK1 copy number gain (CNG). The number and percentage of tumors with and without amplification are indicated. d) TK1 protein expression in hormone sensitive and refractory tumors. Prostate tumor microarrays containing 73 hormone sensitive (HS) and 11 hormone resistant (HS) tumor cores were analyzed for TK1 protein expression by immunohistochemistry. The number and percentage of tumors negative and positive for TK1 expression are indicated. d) Immunoblot analysis for TK1 expression in the indicated prostate cancer cell lines. Actin was used to control for loading. e) Effect of TK1 suppression on the proliferation of prostate cancer cells. Cells were infected with three different hairpins targeting TK1 and a control hairpin targeting GFP, and cell numbers determined 5 days post infection. Relative cell number is normalized to the shGFP control.
(§4) LHSR-AR {Berger, 2004 #15}, LNCaP {Horoszewicz, 1980 #23}, C4-2 {Wu, 1994 #18}, CL-1 {Patel, 2000 #16}, LNCaP-abl {Culig, 1999 #49} and LAPC4 {Klein, 1997 #34} cells have previously been described. LHSR-AR cells were cultured in PrEGM with growth supplements (Lonza). LNCaP were cultured in RPMI supplemented with 10% fetal bovine serum, 1 mM sodium pyruvate and 10 mM Hepes. C4-2, CL-1 and LNCaP-abl were cultured in phenol red free RMPI supplemented with 10% charcoal stripped fetal bovine serum, 1 mM sodium pyruvate and 10 mM Hepes. LAPC4 cells were cultured in IMDM supplemented with 10% fetal bovine serum and 1 nM R1881.
(§5) Stable suppression of TK1 and AR were accomplished by using the pLKO.1-puro lentiviral shRNA constructs previously described {Moffat, 2006 #52}. The sequences targeted by the hairpins are as follows: shTK1-3, […] […] Viable cells were counted using a Coulter Counter.
as §2

[5] = tested on: C4-2 cells; assay: as above; conditions: C4-2 cultures, relative to shGFP control
Text: as §3, §4, §5, §2

Row | Molecule | TK1 protein expression [1] | suppression of TK1 expression [2] | proliferation ([3]; prostate cancer cell lines, 5 days post infection) | cells remaining 12 days post infection [3] | cell number 5 days post infection [4] | cell number 5 days post infection [5]
1 | C[C@]1(O)CC[C@H]2[C@@H]3CCC4=CC(=O)CCC4=C3C=C[C@@]21C [R1881] | androgen induced | – | – | – | – | –
2 | shTK1-3: pLKO.1-puro lentiviral shRNA targeting TK1 sequence AGACCGTAATTGTGGCTGCAC (SEQ ID NO: 1) (target site or template, no part of the molecule) | – | did not efficiently suppress TK1 expression | did not affect proliferation | – | – | –
3 | shTK1-4: pLKO.1-puro lentiviral shRNA targeting TK1 sequence GGGAAGCCGCCTATACCAAGA (SEQ ID NO: 2) (target site or template, no part of the molecule) | – | – | – | few cells remaining | did not significantly affect | reduced cell number
4 | shTK1-5: pLKO.1-puro lentiviral shRNA targeting TK1 sequence TGTCGGCTCTGCTACTTCAAG (SEQ ID NO: 3) (target site or template, no part of the molecule) | – | – | – | few cells remaining | did not significantly affect | reduced cell number
